Measured values taken from patent US4454120A, “Analgesic dipeptide amides and method of use and compositions thereof” (Sterling Drug Inc., priority 1982, dated 1984).

Legend:
[1] = system: guinea pig ileum longitudinal muscle; experiment: Guinea pig ileum test (inhibition of electrically induced twitch); type: cell-based; conditions: ratio of IC50 of reference Met5-enkephalin (=100) to IC50 of test compound in the same preparation, averaged, usually N=4
Description: Adult male guinea pigs (Charles River, Hartley strain) weighing 300-500 g. are decapitated, and the terminal ileum is exposed by reflecting the overlying cecum, severed at the ileocecal juncture, and removed while cutting the mesenteric attachments to avoid excessive traction on the tissue. The ileum (about 30 cm. in length) is transferred to a beaker containing warm modified Krebs-Henseleit solution (118 mM sodium chloride, 4.75 mM potassium chloride, 2.54 mM calcium chloride, 1.19 mM potassium dihydrogen phosphate, 1.2 mM magnesium sulfate, 25 mM sodium bicarbonate, 11 mM glucose, 20 μM choline chloride and 0.125 μM pyrilamine maleate). The terminal (aboral) portion (about 10 cm. in length) is discarded, and segments (3-4 cm. in length) are cut from the remainder and gently slid onto a glass rod (5-6 mm. in diameter) and arranged so that the meseneteric attachment is in a straight line. A cotton swab moistened in the solution is then carefully used to separate the longitudinal muscle from the underlying circular muscle. The longitudinal muscle and adhering myenteric plexus is then gently removed from the remaining tissue with forceps.
Strips of this prepared longitudinal muscle are mounted in a double-jacketed organ bath (5 ml.) under tension (1.0 g.), connected to isometric transducers (Grass FT .03), bathed in the modified Krebs-Henseleit solution described above, aerated with oxygen-carbon dioxide (95:5) and maintained at 37° C.
Stimulators (Grass S-44) are set to deliver repetitive monophasic square wave field stimulation (supramaximal voltage, 0.10 Hz., 0.25 msec. duration) through platinum ring electrodes at the top and bottom of the bath. Regular contractions of the muscle, which result from electrically-induced liberation of acetylcholine from postganglionic parasympathetic nerves, are recorded on a polygraph (Grass model 5). Following tissue equilibration (45-60 min.) and repeated washing (every 10 min.) an aqueous solution of a reference or test compound is added to the bath in a microliter volume (1.25-250 μl) and reductions in muscle twitch height are recorded. More compound can be added […] first washing the preparation.
From the results a half-mazimal inhibitory concentration (IC50) value for the compound is computed by regression analysis of a linear plot of logarithm of concentration against percent of inhibition of twitch height (probits). The ratio of the IC50 value of a reference compound to that of a test compound tested in the same preparation is the molar potency ratio. Usually four preparations are tested simultaneously by the same person (N=4), and the resulting four molar potency ratios are averaged.
The following results were obtained using the examples as test compounds and Met^5 -enkephalin as the reference compound.

[2] = system: Male Swiss-Webster mice; experiment: Mouse acetylcholine writhing test; type: in vivo; conditions: for ED50: Mus musculus, sc, subcutaneous, approximate values
Description: Male Swiss-Webster mice each weighing 18-24 g. are treated subcutaneously (10 ml./kg. injection volume) or orally with the test compound in an aqueous vehicle. Twenty minutes thereafter each mouse is injected intraperitoneally with acetylcholine (3.2 mg./kg.) in aqueous sodium chloride (0.9%). This dose of acetylcholine causes one or more characteristic writhes in the two minute period following injection in control mice which receive the aqueous vehicle not containing the test compound. […] Test compounds are screened at doses of 100 and 30 mg./kg. subcutaneously and 300 and 100 mg./kg. orally using 15 mice at each dose level. ED50 values for active compounds are estimated by probit analysis of quantal scores at four or more dose levels using 15 mice at each dose level.

[3] = system: guinea pig ileum; conditions: cited from earlier work
[4] = system: mouse vas deferens; conditions: cited from earlier work
[5] = system: rat; conditions: rat tail flick, relative to morphine, cited from earlier work
[6] = system: opiate receptor; conditions: rat brain membranes, relative to morphine; cited from earlier work

Row | Compound | Average Molar Potency Ratio [1] | also measured
1 | CN(CCCc1ccccc1)C(=O)[C@@H](CC[S+](C)[O-])NC(=O)[C@@H](N)Cc1ccc(O)cc1.Cl.O (stereo partly drawn) [Example 4, L-tyrosyl-N-methyl-N-(3-phenylpropyl)-D-methioninamide S-oxide monohydrochloride monohydrate] | 5 | ED50 [2]: > 30 mg/kg
2 | CN(C(=O)[C@@H](N)Cc1ccc(O)cc1)[C@H](CC[S+](C)[O-])C(=O)NCCCc1ccccc1.Cl.O (stereo partly drawn) [Example 8, L-tyrosyl-N^2-methyl-N-(3-phenylpropyl)-D-methioninamide S-oxide monhydrochloride monohydrate] | 650 | –
3 | N-methyl-L-tyrosyl-N-(3-phenylpropyl)-D-methioninamide S-oxide monohydrochloride hemihydrate [Example 6] | 360 | –
4 | Cl.NC(=O)CC[C@@H](NC(=O)[C@@H](N)Cc1ccc(O)cc1)C(=O)NCCCc1ccccc1.O [Example 9, L-tyrosyl-N^1-(3-phenylpropyl)-D-glutamamide monohydrochloride hydrate (4:3)] | 47 | –
5 | L-tyrosyl-N-(3-phenylpropyl)-D-serinamide hydrate (3:2) [Example 10] | 15 | –
6 | CN[C@@H](Cc1ccc(O)cc1)C(=O)N[C@@H](CCSC)C(=O)NCCCc1ccccc1.Cl.O [Example 5, N-methyl-L-tyrosyl-N-(3-phenylpropyl)-L-methioninamide monohydrochloride hydrate (4:1)] | 180 | 95% confidence limits of subcutaneous ED50 [2]: 5.0 to 12 mg/kg; subcutaneous ED50 ([2]; acetylcholine 3.2 mg./kg. i.p. 20 min after the compound, probit analysis): 8.5 mg/kg
7 | CSCC[C@@H](NC(=O)[C@@H](N)Cc1ccc(O)cc1)C(=O)NCCCc1ccccc1.Cl.O [Example 1, L-tyrosyl-N-(3-phenylpropyl)-D-methioninamide monohydrochloride monohydrate] | 279 | ED50 [2]: > 30 mg/kg
8 | C[C@@H](NC(=O)[C@@H](N)Cc1ccc(O)cc1)C(=O)NCCNCCc1ccccc1 [HTyrD-AlaNH(CH2)2 NH(CH2)2 Phenyl] | – | potency relative to Met-enkephalin [3]: < 1%; potency relative to Met-enkephalin [4]: < 1%
9 | CSCC[C@H](C(=O)NCCCc1ccccc1)N(C)C(=O)[C@@H](N)Cc1ccc(O)cc1.Cl [Example 7, L-tyrosyl-N^2-methyl-N-(3-phenylpropyl)-D-methioninamide monohydrochloride] | 260 | –
10 | C[C@@H](NC(=O)[C@@H](N)Cc1ccc(O)cc1)C(N)=O [H-Tyr-D-Ala-NH2] | – | times less potent than morphine, intravenously ([5]; intravenous): greater than 10 times; times less potent than morphine, intraventricularly ([5]; intraventricular): 200 times; times less affinity than morphine [6]: 830 times
11 | CSCC[C@@H](NC(=O)[C@@H](N)Cc1ccc(O)cc1)C(=O)N(C)CCCc1ccccc1.Cl [Example 3, L-tyrosyl-N-methyl-N-(3-phenylpropyl)-D-methioninamide monohydrochloride] | 19 | –
12 | Met^5 -enkephalin [reference compound] | 100 | –
13 | L-tyrosyl-N-(3-phenylpropyl)-D-methioninamide S-oxide monohydrochloride sesquihydrate [Example 2] | 1180 | –
